# According to US20050153930A1, “Inhibition of a novel calcium injury current that forms in nuerons during injury prevents neuronal cell death” (Robert J. DeLorenzo, priority 2000, published 2005):
# Entries after “also recorded” stand apart in the source; their conditions may differ. Counter-ions that a name gives are not always drawn. Like-named read-outs stand apart in the source and are kept apart here.
# Legend:
# Type in all cases: cell-based, rat
# [1] = tested on: Injury Induced Calcium Channel (IICC); test: Voltage clamp current/voltage relationship of the injury induced calcium current
# [2] = tested on: hippocampal neurons in culture; test: Extended neuronal depolarization (END), membrane potential recording after excitotoxic glutamate exposure
# [3] = tested on: hippocampal neurons in culture; test: Neuronal cell death / survival after excitotoxic glutamate, aging or chronic glutamate injury; settings: for neuronal cell death produced by excitotoxic glutamate exposure: acute excitotoxic injury, treatment after injury
# [4] = tested on: hippocampal neurons in culture; test: Intracellular calcium measurement (Indo-1 / Fura-FF) after excitotoxic glutamate exposure; settings: for prolonged elevation of intra cellular calcium / entry of extra cellular calcium following injury: after excitotoxic glutamate exposure
# [5] = neurons in END after excitotoxic glutamate, voltage steps -90 to +60 mV
# [6] = applied in wash after 10 min 100 uM glutamate + 10 uM glycine
# [7] = administered alone or in combination (without gadolinium) after the 10 minute glutamate exposure
# [8] = chronically administered during aging of neurons
# [9] = chronic exposure during numerous minor chronic glutamate injuries
molecule,measurement,setting,value
"N[C@@H](CCCP(=O)(O)O)C(=O)O [APV, reference compound]",effect on IICC current (calcium injury current),[1]; [5],None of the glutamate receptor antagonists had any effect
"CC(C)COCC(CN(Cc1ccccc1)c1ccccc1)N1CCCC1 (stereo not shown) [Bepridil, reference compound]",effect on IICC current (calcium injury current),[1],had no effect on blocking the observed calcium injury current
same,reversal of END,[2]; [6],did not block END; also recorded: had no effect in reversing END
"N#Cc1cc2[nH]c(=O)c(=O)[nH]c2cc1[N+](=O)[O-] [CNQX, reference compound]",effect on IICC current (calcium injury current),[1]; [5],None of the glutamate receptor antagonists had any effect
"NS(=O)(=O)c1cccc2c1c([N+](=O)[O-])cc1nc(O)c(O)nc12 [NBQX, reference compound]",effect on IICC current (calcium injury current),[1]; [5],None of the glutamate receptor antagonists had any effect
"COc1ccc(CCCOC(Cn2ccnc2)c2ccc(OC)cc2)cc1 (stereo not shown) [SKF-96365, reference compound]",reversal of END,[2]; [6],had no effect on reversing END
"O=C(O)CCCCC1CCSS1 (stereo not drawn) [alpha-lipoate, 1,2-dithiolane-3-pentanoic acid]",neuronal survival,[3]; [7],had no significant effect on neuronal survival
CCCCCCCCCCCCCCCC(=O)OC[C@H](O)[C@H]1OC(=O)C(O)=C1O [ascorbyl palmitate],neuronal survival,[3]; [7],had no significant effect on neuronal survival
CC1=C(/C=C/C(C)=C/C=C/C(C)=C/C=C/C=C(C)/C=C/C=C(C)/C=C/C2=C(C)CCCC2(C)C)C(C)(C)CCC1 [beta-carotene],neuronal survival,[3]; [7],had no significant effect on neuronal survival
"[Cd] [cadmium, reference compound]",effect on IICC current (calcium injury current),[1],None of these calcium channel blockers had any effect
O=c1ccc2ccccc2o1 [coumarin],neuronal survival,[3]; [7],had no significant effect on neuronal survival
"[Cl][Gd]([Cl])[Cl] [gadolinium, gadolinium chloride]",prolonged elevation of intra cellular calcium / entry of extra cellular calcium following injury,[4],able to block the extra cellular calcium entering from the bathing solution; also recorded: blocked by gadolinium
same,prolonged elevation of intra cellular calcium / entry of extra cellular calcium following injury,[4]; listed as Gadolinium,effective in reversing the prolonged elevation of intra cellular calcium
same,calcium entry and accumulation,"[4]; chronic administration, chronic injury model",blocked calcium entry and accumulation
same,calcium entry,[4]; [8],blocked calcium entry
same,time for intra cellular calcium to return to baseline levels,"[4]; gadolinium in wash after excitotoxic glutamate, controls sustained at approximately 1-2 uM (indo-1)",30 to 40 min
same,neuronal cell death produced by excitotoxic glutamate exposure,[3],effective in reversing
same,neuronal cell death produced by excitotoxic glutamate exposure,[3]; listed as Gadolinium,prevention of delayed neuronal cell death
same,life span of neurons / cell death associated with aging,[3]; administered chronically to neurons as they aged,effective in significantly increasing the life span of the neurons; also recorded: prolonged the life of the neurons
same,neuronal cell death from chronic injury,[3]; [9],prevented the gradual production of neuronal cell death
same,neuronal cell death,[3]; excitotoxic injury in the presence of gadolinium,did not die
same,formation of IICCs,[1]; [9],blocked the formation of IICCs
same,development of IICCs,[1]; given chronically to aging neurons,blocked the development of IICCs
same,effect on IICC current (calcium injury current),[1]; [5],inhibited the IICC current
same,effect on IICC current (calcium injury current),"[1]; neurons in END after excitotoxic glutamate, voltage steps -90 to +60 mV, listed as Gadolinium",effectively inhibited the IICC current
same,effect on IICC current (calcium injury current),"[1]; neurons in END after excitotoxic glutamate, voltage steps -90 to +60 mV, listed as gadolinium chloride",returns the neuron from END to baseline (control) conditions
same,reversal of END,[2]; [6],blocked by gadolinium; also recorded: effective in reversing END
same,reversal of END,"[2]; applied in wash after 10 min 100 uM glutamate + 10 uM glycine, listed as Gadolinium",as effective as zero calcium in reversing END; also recorded: able to reverse END as well as zero calcium
same,development of END,"[2]; chronic administration, chronic injury model (multiple minor glutamate exposures)",blocked calcium entry and accumulation and the development of END
same,development of END,[2]; [8],blocked calcium entry and the development of END
same,time for END to return to baseline levels,"[2]; gadolinium in wash after excitotoxic glutamate, controls manifested END for greater than one hour",30 to 40 min
C[C@H]1C[C@@H]2[C@H]([C@@H](O)C[C@@]3(C)[C@H]2CC[C@]3(O)C(=O)CO)[C@@]2(C)C=CC(=O)C=C12 [methlyprednisolone],neuronal survival,[3]; [7],had no significant effect on neuronal survival
CCN(CC)Cc1nccn1-c1ccc([N+](=O)[O-])cc1C(=O)c1ccccc1Cl [nizofenone],neuronal survival,[3]; [7],had no significant effect on neuronal survival
C[C@@H]1C[C@H]2[C@@H]3CCC4=CC(=O)C=C[C@]4(C)C3=CC[C@]2(C)[C@H]1C(=O)CN1CCN(c2cc(N3CCCC3)nc(N3CCCC3)n2)CC1 [tirilazad mesylate],neuronal survival,[3]; [7],had no significant effect on neuronal survival
"O=C1O[C@H]([C@@H](O)CO)C(O)=C1O [vitamin C, ascorbic acid]",neuronal survival,[3],had no significant effect on neuronal survival
"Cc1c(C)c2c(c(C)c1O)CC[C@@](C)(CCC[C@H](C)CCC[C@H](C)CCCC(C)C)O2 [vitamin E, alpha-tocopherol]",neuronal survival,[3]; [7],had no significant effect on neuronal survival
"[Cl-].[Cl-].[Zn+2] [zinc chloride, reference compound]",reversal of END,"[2]; 5 uM, after excitotoxic glutamate exposure",did not prevent END
same,reversal of END,"[2]; 5 uM, after excitotoxic glutamate exposure, listed as zinc",had no effect in reversing END
dilauryl ascorbate,neuronal survival,[3],had no significant effect on neuronal survival
heparin,neuronal survival,[3]; [7],had no significant effect on neuronal survival
